Experimental data published in patent publication US4596806A, “7-piperidino-1,2,3,5-tetrahydroimidazo[2,1-b]-quinazolin-2-one having platelet aggregation inhibitory activity” (Daiichi Seiyaku Co., Ltd., priority 1983, dated 1986).
Read-outs that look alike come from different tables or passages of the source.

Assays:
[1] = LD50 (probit method), rat; settings: in vivo, iv
circulatory system = experiment: Test of Influence on Circulatory System (blood pressure, heart beat); assay type: in vivo, rat (male normal SLC-Wistar); settings: p.o. 50 mg/Kg
Procedure: 5 or 6 male normal SLC-Wistar rats per group (body weight: 205-255 g) orally received 50 mg/Kg of the test compound, and the blood pressure (tail cuff method) and the heart beats were measured with the passage of time in order to elucidate influences of the test compound on the circulatory system.

[2] = LD50 (probit method), mouse; settings: in vivo, iv
[3] = tested on: B16BL6-induced aggregation; experiment: Test of Inhibition of Platelet Aggregation Caused by Cancer Cells (ex vivo), B16BL6; assay type: in vivo, C57BL/6 mouse; settings: 1 mg/kg or more, i.v. or oral
Procedure: The compound of the invention (dihydrochloride monohydrate) dissolved in a physiological saline solution (J.P.) was intravenously or orally administered to a 7-week-old C57BL/6 male mouse (body weight: about 20 g). Three minutes after the intravenous administration or 1 hour later from the oral administration, blood was taken from the abdominal vein into a syringe containing 1/10 volume of a 3.13% aqueous solution of sodium citrate dihydrate and PRP was prepared as described before in Test Example 6. The PRP was placed in a reaction tube under the same conditions as in Test Example 6, and 5 μl of a 200 mM calcium chloride aqueous solution was added thereto. One minute later, 50 μl of a B16BL6 (5×10^4 cells/50 μl)- or a 3LL (2×10^6 cells/50 μl)-cell suspension was added to the system. In the same manner as in Test Example 6, platelet aggregation was determined.

3LL = experiment: Test of Inhibition on Pulmonary Metastasis, 3LL; assay type: in vivo, C57BL/6 mouse; settings: day 11, mean ± standard error
Procedure: 1×10^5 cells/animal of B16BL6 or 7×10^5 cells/animal of 3LL were inoculated to the tail vein of 10 to 12 6-week-old C57BL/6 male mice per group (body weight: about 18.5 g). The compound (I) (dihydrochloride monohydrate) dissolved in a physiological saline solution (J.P.) was administered to each animal at a dose of 1, 3 or 10 mg/kg orally 24 hours, 1 hour before and 1 hour after the inoculation, or intravenously immediately before the inoculation. On the 13th day from the inoculation of B16BL6 or 11th day from the inoculation of 3LL, the number of metastatic nodules in the lungs was counted using an operating microscope.

[4] = tested on: B16BL6-Induced Acute Pulmonary Embolism; experiment: Test of Inhibition of Death by Acute Pulmonary Embolism; assay type: in vivo, C57BL/6 mouse
Procedure: The compound of the present invention (dihydrochloride monohydrate) was dissolved in a physiological saline solution (J.P.) and intravenously administered to the tail vein of a 5-week-old (C57BL/6 male mouse (body weight: about 18.5 g) at a dose of 10 mg/kg or 30 mg/kg. After 3 minutes, 5×10^5 cells of B16BL6 were intravenously inoculated to the tail vein. The death ratios 3 and 10 minutes after the inoculation are shown in Table 6.

[5] = tested on: platelet aggregation due to addition of 3LL cells; experiment: Test of Inhibition of Platelet Aggregation Caused by Cancer Cells (in vitro), 3LL; assay type: cell-based, C57BL/6 mouse
Procedure: Blood was taken from the abdominal vein of a 7-week-old C57BL/6 male mouse into a syringe containing 1/10 volume of a 3.13% aqueous solution of sodium citrate dihydrate as an anticoagulant. The thus prepared citrated blood sample was centrifuged at 230×g at room temperature for 7 minutes. The resulting supernatant fluid was used as PRP. The remainder was further centrifuged at 1,500×g at room temperature for 10 minutes, and the supernatant fluid was used as platelet-poor-plasma (PPP). Platelet count in PRP was adjusted to 450,000 per mm^3 by PPP. A 450 μl of PRP was placed in a reaction tube and subjected to centrifugation at 950 rpm at 30° C. About 1 minute later while continuing the centrifugation, 5 μl of a 200 mM calcium chloride aqueous solution was added to the system to a final concentration of […]. 30 seconds later, 5 μl of a saline solution of the compound (I) (dihydrochloride monohydrate) was added to the system, and additional 30 seconds later, 50 μl of a cell suspension containing 1×10^5 cells of B16 melamona BL6 (B16BL6) originated in a C57BL mouse or 50 μl of a cell suspension containing 1×10^6 cells of Lewis lung cancer (3LL) originated in a C57BL mouse was added thereto. Platelet aggregation of the sample system was determined from changes in transmittancy by use of an aggregometer. […]

platelet aggregation [6] = experiment: Test of Platelet Aggregation Inhibition (in vitro), rat PRP; assay type: cell-based, rat (Wistar Imamichi); settings: rat blood, read-out: Platelet Aggregation Inhibitory Activity (in vitro: IC50)
Procedure: The test was performed as follows in accordance with the method of Ashida et al, Thrombosis and Haemostasis, Vol. 40, p542 (1979).
Blood was taken by puncture from the heart of a Wistar Imamichi rat under anesthesia with pentobarbital into a syringe containing 1/10 volume of a 3.13% aqueous solution of sodium citrate dihydrate, and the citrated blood was centrifuged to obtain a platelet-rich-plasma (PRP). In the same manner, citrated blood was collected from the vein of a healthy human who had not taken aspirin or any other anti-inflammatory agent since before 10 days, followed by centrifugation to obtain PRP. 0.005 ml of each test compound was added to 0.445 ml each of these PRP samples, and the system was warmed at 30° C. for 1 minute. 0.05 ml of an aggregation inducer (ADP or collagen) was then added thereto, and platelet aggregation was determined according to the method of Born, Nature, Vol. 194, p927 (1962). The inhibitory activity of platelet aggregation was expressed in terms of 50% inhibition concentration, and the results obtained are shown in Table 2.

platelet aggregation [7] = experiment: Test of Platelet Aggregation Inhibition (ex vivo, p.o.); assay type: in vivo, rat (male Wistar Imamichi); settings: for inhibition at 1 mg/kg / inhibition at 10 mg/kg: Rattus norvegicus, Platelet, po, 1 h, read-out: Platelet Aggregation Inhibitory Activity (ex vivo: % inhibition); for inhibition at 1 mg/kg: p.o. 1 mg/Kg; for inhibition at 10 mg/kg: p.o. 10 mg/Kg
Procedure: One hour later, citrated blood was taken from the heart, and platelet aggregation was determined in the same manner as described in Test Example 2.

O=C1CN2Cc3cc(N4CCCCC4)ccc3N=C2N1 [Compound (I), 7-piperidino-1,2,3,5-tetrahydroimidazo[2,1-b]quinazolin-2-one]
LD50 ([1]; female Wistar rat): 219 mg/kg | LD50 ([1]; male Wistar rat): 232 mg/kg | reduction in blood pressure and increase in heart beat (in words) (circulatory system): relatively small and also these changes can be restored in short periods of time | Increase in Heart Beat (circulatory system; 1 hr after admin.): 27% | Reduction in Blood Pressure (circulatory system; 1 hr after admin.): 18% | Increase in Heart Beat (circulatory system; 2 hr after admin.): 32% | Reduction in Blood Pressure (circulatory system; 2 hr after admin.): 12% | Increase in Heart Beat (circulatory system; 3 hr after admin.): 27% | Reduction in Blood Pressure (circulatory system; 3 hr after admin.): 12% | Increase in Heart Beat (circulatory system; 5 hr after admin.): 25% | Reduction in Blood Pressure (circulatory system; 5 hr after admin.): 12% | Increase in Heart Beat (circulatory system; 6 hr after admin.): 17% | Reduction in Blood Pressure (circulatory system; 6 hr after admin.): 9% | LD50 ([2]; female ddy mouse): 380 mg/kg | LD50 ([2]; male ddy mouse): 314 mg/kg | inhibition of B16BL6-induced aggregation (ex vivo) [3]: completely inhibited | Number of Metastatic Nodules in the Lungs (3LL; 1 mg/kg): 15.4 ± 2.8 | Number of Metastatic Nodules in the Lungs (3LL; 3 mg/kg): 5.9 ± 1.3 | Number of Metastatic Nodules in the Lungs (3LL; 10 mg/kg): 4.0 ± 1.1 | Number of Dead Animals/Number of Tested Animals ([4]; i.v. 10 mg/kg, after 3 min): 2/9 | Number of Dead Animals/Number of Tested Animals ([4]; i.v. 10 mg/kg, after 10 min): 4/9 | Number of Dead Animals/Number of Tested Animals ([4]; i.v. 30 mg/kg, after 3 min): 1/9 | Number of Dead Animals/Number of Tested Animals ([4]; i.v. 30 mg/kg, after 10 min): 4/9 | inhibition of platelet aggregation due to addition of 3LL cells ([5]; 0.3 μM): partially inhibited | inhibition of platelet aggregation due to addition of 3LL cells ([5]; final concentration of 1 μM or more): completely inhibited | IC50 (platelet aggregation [6]; inducer ADP): 3.8 µM | IC50 (platelet aggregation [6]; inducer collagen): 0.33 µM | inhibition at 1 mg/kg (platelet aggregation [7]; inducer ADP): 16.8% | inhibition at 1 mg/kg (platelet aggregation [7]; inducer collagen): 20.6% | inhibition at 10 mg/kg (platelet aggregation [7]; inducer ADP): 33.8% | inhibition at 10 mg/kg (platelet aggregation [7]; inducer collagen): 59.5% | aggregation inhibitory activity ex vivo (in words) (platelet aggregation [7]; p.o. 10 mg/Kg or 1 mg/Kg, ADP- or collagen-induced): significant aggregation inhibitory activity
